“And” between values parts separate entries of the source, which are not always exact repeats. Equal entries are not always repeated.
Legend:
[1] = tested on: mites; test: Minimum Level Treatment Effectiveness petri dish bioassay; assay type: in vivo; details: for # of Dead Mites/Total Mites: 17.5 hours exposure
Description: Determination of the minimum amount of 2-heptanone effective in mite mortality in our bioassay was performed according to the following procedure: 3 Kimwipes® were placed on the bottom of petri dishes and slightly moistened with water using a disposable 1 ml pipette. A cut section of Parafilm® M was placed over the moistened Kimwipes® and stretched up and over the outer edge of the petri dish bottom. […] A single Whatman® Filter paper (9.0 cm) was placed on top of the pierced Parafilm® area and pushed down to create space between the filter paper and the petri dish lid. Six to eight mites and two bee larvae were placed on top of the filter paper in each petri dish. A small strip of filter paper was taped to the inside top of each petri dish. Four groups of two petri dishes were labeled according to the type of treatment. The treatments were: 1 μL 2-heptanone; 5 μL 2-heptanone; 10 μL 2-heptanone; and Control (no treatment). All eight dishes were then placed in incubators set to maintain a temperature of 33-34.4° C. Our results were as follows:
In our second bioassay, the same protocol was applied; however we sought to investigate if lower amounts of 2-heptanone could be as effective. In this trial, amounts of 0.5 and 1 μL of 2-heptanone were used. After 17.5 hours exposure to 2-heptanone, our results were as follows: […]

[2] = tested on: honey bee (Apis mellifera L.) colony; test: Maximum levels of 2-heptanone without negatively impacting bee behavior (observation hive); assay type: in vivo; details: pure 2-heptanone up to 500 μL on filter paper (2700 ppm v/v or 0.27%), queenless two-frame hive, 23° C.
Description: A test was conducted with 2-heptanone in pure form to determine its effects on honey bee (Apis mellifera L.) colony behavior and ascertain if there was a maximum dose of 2 heptanone that could induce a colony to leave their hive. Two full sized frames were taken from a colony in our local apiary and placed inside a two-frame observation hive having a total volume of 8565 cm^3.These two frames contained adult worker bees only and were queenless. A 2-day period when no testing occurred was included to allow for colony adjustment to the new dwellings. The observation hive was set up inside a greenhouse with a 2.5 cm tube connected from the side of the observation hive to the side wall of the greenhouse. This tube served as an exit and entrance for the workers.
We fastened a strip of filter paper measuring 7.6 cm by 2.5 cm to the top inside frame of the observation colony with a thumbtack and applied an initial 100 μL of pure 2-heptanone to the filter paper and observed worker behavior. Subsequent applications of 40 μL of 2-heptanone were applied every 4 minutes with observations of worker behavior documented. Ambient temperature at the time of the observations was 23° C. […]
Our experiment ended when 500 μL of pure 2-heptanone was the total amount on our filter paper. Concentration of 500 μL of 2-heptanone in the two-frame observation hive was calculated to be 2700 ppm v/v or 0.27%.

[3] = Diffusion of 2-heptanone from controlled release strip; assay type: physicochemical; details: polyurethane core with 60 g 2-heptanone, in 5-frame colony
Description: This test (Trial 3) was carried out in 5-frame colonies as described above except for the following changes. In this test, 2-heptanone was released using a controlled release strip as described in U.S. Pat. No. 5,750,129. In brief, the controlled release strip was composed of a polymer sleeve 20 cm long and 5 cm wide in which a polyurethane core containing 60 g 2-heptanone was sealed. The 2-heptanone strip was placed on the top of the frame (top bar). The controlled diffusion of 2-heptanone through the membrane occurred over a period of 3 weeks. A new 2-heptanone controlled release strip was placed on the top bar after 3 weeks. The Apistan® strip was placed between the frames as described above. The Control comprised no treatment.

[4] = in words; cited from earlier work

CCCCCC(C)=O [2-Heptanone]
# of Dead Mites/Total Mites ([1]; 0.5 μL 2-heptanone, per dish): 1/6 and 1/5 and 2/6 and 0/5 | # of Dead Mites/Total Mites ([1]; 1 μL 2-heptanone, per dish): 3/6 and 0/5 and 1/4 and 1/5 | % Mortality 25.5 hours ([1]; 1 μL 2-heptanone, per dish): 50% and 66% | % Mortality 40.5 hours ([1]; 1 μL 2-heptanone, per dish): 50% and 66% | % Mortality 40.5 hours ([1]; 5 μL 2-heptanone, per dish): 100% and 68% | % Mortality 17.5 hours ([1]; 10 μL 2-heptanone, per dish): 66% and 40% | % Mortality 25.5 hours ([1]; 10 μL 2-heptanone, per dish): 66% and 50% | % Mortality 40.5 hours ([1]; 10 μL 2-heptanone, per dish): 66% and 60% | action on the mites at higher concentrations ([1]; mites inanimate at 1 hour, active again as 2-heptanone evaporated): knockdown action | minimum amount of 2-heptanone that will cause mite mortality ([1]; petri dish): 1 µL | bees exiting the observation hive [2]: At no time however, did all bees fully or permanently exit the observation hive | period of controlled diffusion of 2-heptanone through the membrane [3]: 3 weeks | solubility in water [4]: very slightly soluble in water

Source: patent US7423068B2, “Control of parasitic mites of honey bees” (The United States of America as represented by the …, priority 2001, dated 2008)
